Assays:
Assay type in all cases: in vivo
Spodoptera littoralis = test: Action against Spodoptera littoralis (sprayed soybean plants); conditions: 72 h, 400 ppm spray on young soybean plants, 10 caterpillars in the first stage, 3 days later, read-out: percentage reduction in population and percentage reduction in feeding damage (% activity)
Description: Young soybean plants are sprayed with an aqueous emulsion spray mixture comprising 400 ppm of test compound and, after the spray-coating has dried, the plants are populated with 10 caterpillars of Spodoptera littoralis in the first stage and then placed in a plastics container. 3 days later, the percentage reduction in population and the percentage reduction in feeding damage (% activity) are determined by comparing the number of dead caterpillars and the feeding damage on the treated plants with that on untreated plants.

Plutella xylostella = test: Action against Plutella xylostella caterpillars (sprayed cabbage plants); conditions: 72 h, 400 ppm spray on young cabbage plants, 10 caterpillars in the third stage, evaluation 3 days later, read-out: percentage reduction in population and percentage reduction in feeding damage (% activity)
Description: Young cabbage plants are sprayed with an aqueous emulsion spray mixture comprising 400 ppm of test compound. After the spray-coating has dried, the cabbage plants are populated with 10 caterpillars of Plutella xylostella in the third stage and placed in a plastics container. Evaluation is made 3 days later. The percentage reduction in population and the percentage reduction in feeding damage (% activity) are determined by comparing the number of dead caterpillars and the feeding damage on the treated plants with that on the untreated plants.

Heliothis virescens = test: Action against Heliothis virescens caterpillars (sprayed soybean plants); conditions: 144 h, 400 ppm spray on young soybean plants, 10 caterpillars in the first stage, evaluation 6 days later, read-out: percentage reduction in population and percentage reduction in feeding damage (% activity)
Description: Young soybean plants are sprayed with an aqueous emulsion spray mixture comprising 400 ppm of test compound. After the spray-coating has dried, the soybean plants are populated with 10 caterpillars of Heliothis virescens in the first stage and placed in a plastics container. Evaluation is made 6 days later. The percentage reduction in population and the percentage reduction in feeding damage (% activity) are determined by comparing the number of dead caterpillars and the feeding damage on the treated plants with that on the untreated plants.

Measured: inhibition at 400 ppm

CCn1nnc(-c2ccc(OCCCOc3c(Cl)cc(OCC=C(Cl)Cl)cc3Cl)cc2)n1 [Compound 1.4, 5-(4-{3-[2,6-dichloro-4-(3,3-dichloro-allyloxy)-phenoxy]-propoxy}-phenyl)-2-ethyl-2H-tetrazole]
> 80%: all assays above

ClC(Cl)=CCOc1cc(Cl)c(OCCCOc2ccc(-c3cc(Cl)on3)cc2)c(Cl)c1 [Compound 1.17, 5-chloro-3-(4-{3-[2,6-dichloro-4-(3,3-dichloro-allyloxy)-phenoxy]-propoxy}-phenyl)-isoxazole]
> 80%: all assays above

ClC(Cl)=CCOc1cc(Cl)c(OCCCOc2ccc(-c3noc(Cl)n3)cc2)c(Cl)c1 [Compound 1.16, 5-chloro-3-(4-{3-[2,6-dichloro-4-(3,3-dichloro-allyloxy)-phenoxy]-propoxy}-phenyl)-[1,2,4]oxadiazole]
> 80%: all assays above
